Activity calls are given as the source filed them. The calls are words filed in the database; no cut-off is given here.
biological target: Human immunodeficiency virus type 1 protease (Human immunodeficiency virus 1) (UniProt Q72874); experiment: Tested in vitro for inhibition of HIV-1 protease at concentration of 10e-6 M; No activity

inhibition, inactive:
CC(C)C(NC(=O)CN(Cc1ccccc1)CC(O)CN(CC(=O)NC(C(=O)NC(C)(C)C)C(C)C)Cc1ccccc1)C(=O)NC(C)(C)C (centres undefined)
CC(C)C(NC(=O)C1Cc2ccccc2CN1CC(O)CN1Cc2ccccc2CC1C(=O)NC(C(=O)NC(C)(C)C)C(C)C)C(=O)NC(C)(C)C (centres undefined)
CC(C)(C)NC(=O)C1Cc2ccccc2CN1CC(O)CN1Cc2ccccc2CC1C(=O)NC(C)(C)C (centres undefined)
N[C@H](CCNC(=O)C1Cc2ccccc2CN1CC(O)CN1Cc2ccccc2CC1C(=O)NCC[C@H](N)C(=O)O)C(=O)O (some centres undefined)

Reference: ChEMBL document CHEMBL1127204, “Synthesis of 1,3-diamino-2-hydroxypropane derivatives as pseudosymmetric HIV protease inhibitors” (Bioorg Med Chem Lett, 1993)
